The structures appear in SMILES notation. pIC50: −log10 of the molar value. Structures can show the parent of a compound that is named as a salt.

The target in one data set is T1, MAO (substrate 5-HT) (Rattus norvegicus, UniProt P21396).
T1 construct: 20 μl of rat brain homogenate; from tissue; host or cells: rat brain homogenate
T1 sequence (P21396 1-526): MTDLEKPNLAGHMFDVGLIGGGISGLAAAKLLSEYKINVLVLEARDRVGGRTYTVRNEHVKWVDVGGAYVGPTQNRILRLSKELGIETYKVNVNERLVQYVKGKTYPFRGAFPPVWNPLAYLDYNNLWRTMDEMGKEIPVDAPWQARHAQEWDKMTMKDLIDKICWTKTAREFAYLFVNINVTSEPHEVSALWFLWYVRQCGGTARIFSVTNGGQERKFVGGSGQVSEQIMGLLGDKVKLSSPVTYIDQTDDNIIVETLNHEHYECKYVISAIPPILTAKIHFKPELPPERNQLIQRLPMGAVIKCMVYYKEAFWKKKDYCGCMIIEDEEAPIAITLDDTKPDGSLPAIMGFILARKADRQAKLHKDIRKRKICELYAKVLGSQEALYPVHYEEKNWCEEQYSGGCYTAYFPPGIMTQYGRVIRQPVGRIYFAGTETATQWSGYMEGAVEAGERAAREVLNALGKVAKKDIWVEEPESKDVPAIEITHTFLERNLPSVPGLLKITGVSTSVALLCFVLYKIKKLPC
Kind of data set: MAO inhibition in vitro, rat brain homogenate, substrate 14C-labelled serotonin (5-HT). The conditions noted are these: substrate 5-HT 2×10^-4 M, 37° C. Type of data set: biochemical. As to the method:
(§1) The MAO inhibiting activity of the compounds in accordance with the invention can be determined in vitro or ex vivo using standard methods. The preparations to be tested were investigated in the tests described hereinafter, which were based on the methods of R. J. Wurtmann and J. A. Axelrod [Biochem. Pharmac. 12, 1439-41 (1963).
(§2) Isolated rat brains are homogenized in 0.1 molar potassium phosphate buffer (pH 7.4) in the ratio 1:4 (weight/volume), the homogenate is diluted with the same buffer in the ratio 1:5 (volume/volume) and stored at -20° C. A mixture of the following composition was used for the incubation:
(§3) 100 μl of 1M phosphate buffer (pH 6.7);
(§4) 100 μl of solution of the substance to be tested in water or in 10% aqueous dimethyl sulphoxide;
(§5) 20 μl of rat brain homogenate; and as the substrate
(§6) 80 μl of ^14 C-labelled serotonin (5-HT) or ^14 C-labelled phenylethylamine (PEA), the radioactive concentration of which amounts to 100,000 decay per minute and which is used in a final concentration of 2×10^-4 M and, respectively, 2×10^-5 M.
(§7) A pre-incubation at 37° C. is effected for 30 minutes prior to the addition of the substrate. The incubation (in the presence of the substrate) is likewise effected at 37° C. and lasts for 10 minutes. The reaction is stopped by the addition of 200 μl of 2N hydrochloric acid.
(§8) In order to extract the desaminated product, the mixture is shaken for 10 minutes with 5 ml of diethyl ether or with 5 ml of n-heptane depending on whether 5-HT or PEA is used as the substrate, whereupon the mixture is centrifuged, the aqueous phase is frozen in a dry-ice bath, the organic phase is transferred into a counting glass and the radioactive concentration is determined in a β-counter.
(§9) The activity of the MAO in comparison to the control homogenates (without substance to be tested) is obtained on the basis of the β-values and the IC50 is defined as that concentration of a substance to be tested which reduces the activity of the MAO upon the substrate 5-HT or PEA by 50%.

Data set [1] concerns MAO in the brain (substrate 5-HT). The data set is described as follows: MAO inhibition ex vivo in brain of rats, substrate 5-HT. The following applies: rat, 100 μmol/kg orally, 2 hrs., given in percentage of the control values. More on the design: species or system male albino rats (Fu-SPF). The procedure:
as §1
(§10) The compounds to be tested are investigated for the inhibition of MAO in the brain and liver of male albino rats (Fu-SPF, 100-140 g. The test compounds are administered orally as a solution or suspension in water in a dosage of 100 μmol per kilogram body weight. After 2 hrs. the animals are narcotized and decapitated. The brain (without cerebellum) and a portion of the liver are dissected out and submitted analogously to the above-described procedure for the determination of the MAO inhibiting activity, whereby the amount of enzyme used is 20 μl of a 1:20 homogenate in the case of brain and 20 μl of a 1:80 homogenate in the case of liver. The activity of the compounds is determined from a comparison of the β-values with the values for control animals treated with vehicle and is given in percentage of the control values.

For data set [2], the system named is MAO in the liver (substrate 5-HT). The data set is described as follows: MAO inhibition ex vivo in liver of rats, substrate 5-HT. More on the design: species or system male albino rats (Fu-SPF). The following applies: rat, 100 μmol/kg orally, 2 hrs., given in percentage of the control values. As to the method:
as §1, §10

Data set [3] relates to MAO in the liver (substrate PEA). The data set is described as follows: MAO inhibition ex vivo in liver of rats, substrate PEA. Further details: species or system male albino rats (Fu-SPF). The conditions noted are these: rat, 100 μmol/kg orally, 2 hrs., given in percentage of the control values. The procedure: as §1, §10
The subject of data set [4] is MAO in the brain (substrate PEA). Kind of data set: MAO inhibition ex vivo in brain of rats, substrate PEA. Further details: species or system male albino rats (Fu-SPF). The conditions noted are these: rat, 100 μmol/kg orally, 2 hrs., given in percentage of the control values. As to the method: as §1, §10
The target of another data set is T2, MAO (substrate PEA) (Rattus norvegicus, UniProt P19643).
T2 construct: 20 μl of rat brain homogenate; from tissue; host or cells: rat brain homogenate
T2 sequence (P19643 1-520): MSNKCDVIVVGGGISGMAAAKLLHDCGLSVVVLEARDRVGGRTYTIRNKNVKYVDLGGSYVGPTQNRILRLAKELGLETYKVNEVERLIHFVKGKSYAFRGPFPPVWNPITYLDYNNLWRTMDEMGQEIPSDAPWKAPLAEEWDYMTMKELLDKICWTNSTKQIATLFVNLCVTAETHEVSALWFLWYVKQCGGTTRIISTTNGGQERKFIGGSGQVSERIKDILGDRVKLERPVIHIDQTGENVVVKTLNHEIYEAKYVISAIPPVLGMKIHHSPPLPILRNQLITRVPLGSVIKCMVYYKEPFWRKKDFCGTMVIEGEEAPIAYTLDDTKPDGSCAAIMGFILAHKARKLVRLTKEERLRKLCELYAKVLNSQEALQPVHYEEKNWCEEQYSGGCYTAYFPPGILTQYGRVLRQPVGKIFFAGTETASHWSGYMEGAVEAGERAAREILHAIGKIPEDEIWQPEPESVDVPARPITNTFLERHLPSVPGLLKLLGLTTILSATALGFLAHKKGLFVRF
Kind of data set: MAO inhibition in vitro, rat brain homogenate, substrate 14C-labelled phenylethylamine (PEA). Type of data set: biochemical. The following applies: substrate PEA 2×10^-5 M, 37° C. As to the method:
as §1, §2, §3, §4, §5, §6, §7, §8, §9

Data set [5] is described as follows: Preliminary oral toxicity testing in mice. Type of data set: in vivo. The conditions noted are these: one mouse per dosage; for LLD (lowest lethal dose): death within 24 hrs.; for MTD: in vivo, survival, read-out: HTD (highest tolerated dose). The text has this:
The toxicity of the compounds in accordance with the invention is investigated by orally administering different dosages of the dissolved or suspended compounds to mice. One mouse is used per dosage. The dosage is halved stepwise so that a dosage range of about 1.5 to the power of ten is covered. The results of this preliminary toxicity testing are reproduced in the form of two administered dosages.
The higher dosage (LLD=lowest lethal dose) led to death within 24 hrs., the lower dosage (HTD=highest tolerated dose) was survival. (Dosage data in miligram per kilogram body weight, administered orally).

Take `CC1=NCCn2c1cc1c2-c2ccc(Cl)cc2CC1` [3-Chloro-5,6,10,11-tetrahydro-8-methylbenzo[g]pyrazino[1,2-a]indole]: the pIC50 on MAO (substrate 5-HT) is 8.00; on MAO (substrate PEA), below 6.00. The “Remaining brain MAO activity, 5-HT (% of control)” value in data set [1] came out at 42%. Further, in data set [2], the “MAO inhibition, Liver, 5HT” value came to 20%. The “Remaining liver MAO activity (PEA), % of control” value in data set [3] is 96%. Further, the “Remaining brain MAO activity (PEA), % of control” value in data set [4] was determined as 93%.
Turning to `CC1=NCCn2c1ccc2-c1ccc(OC2CCCC2)cc1` [6-[p-(Cyclopentyloxy)phenyl]-3,4-dihydro-1-methylpyrrolo[1,2-a]pyrazine], the negative-log IC50 (pIC50) against MAO (substrate 5-HT) was 8.00; on MAO (substrate PEA) it was above 9.00. Besides, the “Remaining brain MAO activity, 5-HT (% of control)” value in data set [1] is reported as 67%. Besides, the “MAO inhibition, Liver, 5HT” value in data set [2] was 38%. The “Remaining liver MAO activity (PEA), % of control” value in data set [3] worked out at 56%. Further, the “Remaining brain MAO activity (PEA), % of control” value in data set [4] was found to be 33%.
For `CC1=NCCn2c1ccc2-c1ccccc1` [3,4-Dihydro-1-methyl-6-phenylpyrrolo[1,2-a]pyrazine], the pIC50 is 6.52 at MAO (substrate 5-HT) and below 6.00 at MAO (substrate PEA).
For the molecule `CC1=NCCn2c1cc1c2-c2ccc(OC(C)C)cc2CC1` [5,6,10,11-tetrahydro-3-isopropoxy-8-methylbenzo[g]pyrazino[1,2-a]indole], the negative logarithm of the IC50 (pIC50) was 9.40 at MAO (substrate 5-HT) and 7.85 against MAO (substrate PEA). Also, the “Remaining brain MAO activity, 5-HT (% of control)” value in data set [1] came out at 8%. In data set [2], the “MAO inhibition, Liver, 5HT” value worked out at 10%. For the same molecule, the “Remaining liver MAO activity (PEA), % of control” value in data set [3] came out at 75%. In data set [4], the “Remaining brain MAO activity (PEA), % of control” value is 60%.
For `CC1=NCCn2c1cc1c2-c2ccccc2CC1` [5,6,10,11-Tetrahydro-8-methylbenzo[g]pyrazino[1,2-a]indole], the pIC50 on MAO (substrate 5-HT) is 7.52; on MAO (substrate PEA), below 6.00. The “Remaining brain MAO activity, 5-HT (% of control)” value in data set [1] came to 48%. Moreover, the “MAO inhibition, Liver, 5HT” value in data set [2] came to 47%. In addition, the “Remaining liver MAO activity (PEA), % of control” value in data set [3] worked out at 81%. Besides, the “Remaining brain MAO activity (PEA), % of control” value in data set [4] worked out at 87%.
Consider `CC1NCCn2c1cc1c2-c2ccc(Cl)cc2CC1.O=C(O)/C=C/C(=O)O` (centres unmarked) [Example 31, 3-chloro-5,6,8,9,10,11-hexahydro-8-methylbenzo[g]pyrazino[1,2-a]indole fumarate (1:1)], for which, in data set [5], the “LLD (lowest lethal dose)” value was 1000 miligram per kilogram body wei and the MTD was found to be 500 mg/kg.
Take `COc1ccc(-c2ccc3n2CCN=C3C)cc1` [3,4-Dihydro-6-(p-methoxyphenyl)-1-methylpyrrolo[1,2-a]pyrazine]: the pIC50 was 7.30 against MAO (substrate 5-HT) and below 6.00 on MAO (substrate PEA).
Turning to `CC1=NCCn2c1ccc2-c1ccc(Cl)cc1` [6-(p-Chlorophenyl)-3,4-dihydro-1-methylpyrrolo[1,2-a]pyrazine], the results for the pIC50 against MAO (substrate 5-HT) and against MAO (substrate PEA) were 6.46 and 5.00, respectively.
Turning to `CC1=NCCn2c1cc1c2-c2ccc(OC3CCCC3)cc2CC1.O=C(O)/C=C/C(=O)O` [Example 53, 3-cyclopentyloxy-5,6,10,11-tetrahydro-8-methylbenzo[g]pyrazino[1,2-a]indole fumarate (1:1)], in data set [5], the “LLD (lowest lethal dose)” value was 500 miligram per kilogram body wei and the MTD came out at 250 mg/kg.
With `CC1NCCn2c1cc1c2-c2ccccc2CC1.O=C(O)/C=C/C(=O)O` (centres unmarked) [Example 29, 5,6,8,9,10,11-hexahydro-8-methylbenzo[g]pyrazino[1,2-a]indole fumarate (1:1)], in data set [5], the “LLD (lowest lethal dose)” value is given as 625 miligram per kilogram body wei and the MTD came to 312 mg/kg.
As for `CC1=NCCn2c1cc1c2-c2ccc(C3CCCCC3)cc2CC1` [3-cyclohexyl-5,6,10,11-tetrahydro-8-methylbenzo[g]pyrazino[1,2-a]indole], the pIC50 on MAO (substrate 5-HT) was 8.70; against MAO (substrate PEA) it was 6.80.
Regarding `CC1=NCCn2c1cc1c2-c2ccccc2CC1` [Example 10, 5,6,10,11-tetrahydro-8-methyl-benzo[g]pyrazino[1,2-a]indole fumarate (2:3)], in data set [5], the “LLD (lowest lethal dose)” value is 312 miligram per kilogram body wei and the MTD turned out to be 156 mg/kg.
For the molecule `CC1=NCCn2cc(-c3ccccc3)cc21` [3,4-Dihydro-1-methyl-7-phenylpyrrolo[1,2-a]pyrazine], the pIC50 against MAO (substrate 5-HT) was 7.05; on MAO (substrate PEA) it was below 6.00.
In the case of `CC1=NCCn2c1cc1c2-c2ccc(Cl)cc2CC1.O=C(O)/C=C/C(=O)O` [Example 12, 3-chloro-5,6,10,11-tetrahydro-8-methylbenzo[g]pyrazino[1,2-a]indole fumarate (1:1)], in data set [5], the “LLD (lowest lethal dose)” value was 250 miligram per kilogram body wei and the MTD was 125 mg/kg.
In the same order, the values of `CC1=NCCn2c1ccc2-c1ccc(OC2CCCC2)cc1.O=C(O)/C=C/C(=O)O` [Example 37, 6-[p-(cyclopentyloxy)phenyl]-3,4-dihydro-1-methylpyrrolo[1,2-a]pyrazine fumarate (1:1)] are 625 miligram per kilogram body wei and 312 mg/kg.
Turning to `CC1=NCCn2c1ccc2-c1ccc(Cl)cc1.O=C(O)/C=C/C(=O)O` [Example 2, 6-(p-chloro-phenyl)-3,4-dihydro-1-methylpyrrolo[1,2-a]pyrazine fumarate (1:1)], in data set [5], the “LLD (lowest lethal dose)” value is 625 miligram per kilogram body wei and the MTD came to 312 mg/kg.
As to `CC1=NCCn2c1ccc2-c1ccccc1.O=C(O)/C=C/C(=O)O` [Example 9, 3,4-dihydro-1-methyl-6-phenylpyrrolo[1,2-a]pyrazine fumarate (1:1)], in data set [5], the “LLD (lowest lethal dose)” value is reported as 625 miligram per kilogram body wei and the MTD is 312 mg/kg.

Usually pIC50 stands for the negative decadic logarithm of the IC50, by convention in mol/L. Higher therefore signals a low IC50.
